For 13 compounds, CC50 and IC50 results are on record in patent US11603349B2, “Anti-fibrotic compounds” (Certa Therapeutics Pty Ltd, priority 2017, dated 2023).

A short description of data set [1]: MTS tetrazolium reduction cell viability assay. The following applies: rat, rat mesangial cells (1097/IRMC cells), TGF-β1 stimulated, CC50 (μM), vs 1% DMSO vehicle. In general terms: Formazan colour is commonly taken as a measure of viable cells.
For data set [2], the system named is TGF-β induced [14C]-proline incorporation in rat mesangial cells. The data set can be described thus: [14C]-proline incorporation assay (collagen biosynthesis). The following applies: Rattus norvegicus, Mesangial cell, 44 h, inhibition of TGF-β1 (1 ng/ml) induced [14C]-proline incorporation, IRMC cells. The data set is classed as cell-based.

By CC50 is commonly meant the concentration giving 50% cytotoxicity. Low readings indicate greater toxicity to the cells, high ones lower toxicity to the cells. A word on the IC50: it is the concentration that gives 50% inhibition. Higher therefore signals weaker potency. `C#CCOc1ccc(/C=C/C(=O)Nc2ccccc2C(=O)NCC2CCN(C)CC2)cc1OC` [Example 37, (E)-2-(3-(3-methoxy-4-(prop-2-yn-1-yloxy)phenyl)acrylamido)-N-((1-methylpiperidin-4-yl)methyl)benzamide] showed a CC50 at 48 h in data set [1] of 29.2 µM. This compound also had an IC50 in data set [2] of 18 µM.
In data set [1], `COc1cc(/C=C/C(=O)Nc2ccccc2C(=O)O)ccc1OCCc1ccncc1` [Example 59, (E)-2-(3-(3-methoxy-4-(2-(pyridin-4-yl)ethoxy)phenyl)acrylamido)benzoic acid] displayed a half-maximal cytotoxic concentration (CC50) at 48 h of 148 µM. For the same compound, in data set [2], half-maximal inhibition (IC50) was put at 12.1 µM.
For `C#CCOCc1cc(/C=C/C(=O)Nc2ccccc2C(=O)O)ccc1OC` [Example 71, (E)-2-(3-(4-methoxy-3-((prop-2-yn-1-yloxy)methyl)phenyl)acrylamido)benzoic acid] the same measures were 116 µM and 12.2 µM.
`COc1ccc(/C=C/C(=O)Nc2cccnc2)cc1OCc1cnn(C)c1` [Example 150, (E)-3-(4-methoxy-3-((1-methyl-1H-pyrazol-4-yl)methoxy)phenyl)-N-(pyridin-3-yl)acrylamide] gave a CC50 at 48 h in data set [1] greater than 31.6 µM. The same compound returned an IC50 in data set [2] of 4.08 µM.
`COc1ccc(C2CC2C(=O)Nc2cccc(Cl)c2)cc1OCc1cnn(C)c1` (centres unmarked) [Example 156, N-(3-chlorophenyl)-2-(4-methoxy-3-((1-methyl-1H-pyrazol-4-yl)methoxy)phenyl)cyclopropane-1-carboxamide] came in with a CC50 at 48 h in data set [1] greater than 100 µM. The compound further yielded an IC50 in data set [2] of 17.8 µM.
Consider `COc1cc(C2CC2C(=O)Nc2ccc(C#N)cc2)ccc1OC1CCN(C)C1` (centres unmarked) [Example 137, N-(4-cyanophenyl)-2-(3-methoxy-4-((1-methylpyrrolidin-3-yl)oxy)phenyl)cyclopropane-1-carboxamide], for which the CC50 at 48 h in data set [1] was 30.8 µM. Moreover, in data set [2], the IC50 was 15.4 µM.
Take `C#CCOc1ccc(/C=C/C(=O)N2CCC(C(=O)OC)c3ccccc32)cc1OC` (centres unmarked) [Example 9, methyl (E)-1-(3-(3-methoxy-4-(prop-2-yn-1-yloxy)phenyl)acryloyl)-1,2,3,4-tetrahydroquinoline-4-carboxylate]: the CC50 at 48 h in data set [1] stood at 25.5 µM. In data set [2], this compound displayed an IC50 of 1.94 µM.
Turning to `COc1ccc(/C=C/C(=O)Nc2ccccc2C(=O)O)cc1OCCc1ccccn1` [Example 62, (E)-2-(3-(4-methoxy-3-(2-(pyridin-2-yl)ethoxy)phenyl)acrylamido)benzoic acid], in data set [1], the CC50 at 48 h came out at 321 µM. Besides, the half-inhibitory concentration (IC50) in data set [2] worked out at 49 µM.
`C#CCOc1ccc(/C=C/C(=O)Nc2ccccc2C(=O)NCCc2ccccn2)cc1OC` [Example 42, (E)-2-(3-(3-methoxy-4-(prop-2-yn-1-yloxy)phenyl)acrylamido)-N-(2-(pyridin-2-yl)ethyl)benzamide] had a 50% cytotoxic concentration (CC50) at 48 h in data set [1] of 52 µM. This compound yielded an IC50 in data set [2] of 17 µM.
In turn, `C#CCOc1c(/C=C/C(=O)Nc2ccccc2C(=O)O)ccc(OC)c1OC` [Example 95, (E)-2-(3-(3,4-dimethoxy-2-(prop-2-yn-1-yloxy)phenyl)acrylamido)benzoic Acid] yielded a 50% cytotoxic concentration (CC50) at 48 h in data set [1] of 111 µM. Moreover, inhibition in data set [2] was half-maximal at 17.6 µM (IC50).
Consider `C#CCOc1ccc(/C=C/C(=O)Nc2cccc(C#N)c2)c(OCCN(C)C)c1OC` [Example 76, (E)-N-(3-cyanophenyl)-3-[2-[2-(dimethylamino)ethoxy]-3-methoxy-4-prop-2-ynoxy-phenyl]prop-2-enamide], for which the CC50 at 48 h in data set [1] stood at 18.1 µM. The same compound gave an IC50 in data set [2] of 14.9 µM.
In data set [1], `C#CCOc1ccc(/C=C/C(=O)Nc2ccccc2C(=O)NC2CCNCC2)cc1OC` [Example 49, (E)-2-(3-(3-methoxy-4-(prop-2-yn-1-yloxy)phenyl)acrylamido)-N-(piperidin-4-yl)benzamide] came in with a 50% cytotoxic concentration (CC50) at 48 h of 30.6 µM. Moreover, the IC50 in data set [2] turned out to be 25.3 µM.
Compound `C#CCOc1ccc(/C=C/C(=O)Nc2ccccc2C(=O)Nc2cnn(C)c2)cc1OC` [Example 47, (E)-2-(3-(3-methoxy-4-(prop-2-yn-1-yloxy)phenyl)acrylamido)-N-(1-methyl-1H-pyrazol-4-yl)benzamide] had a 50% cytotoxic concentration (CC50) at 48 h in data set [1] greater than 300 µM. Further, inhibition in data set [2] was half-maximal at 29.1 µM (IC50).
